{
  "source": "patent US20230058178A1",
  "about": "“METHODS AND MATERIALS FOR TREATING NERVE INJURY AND/OR PROMOTING WOUND HEALING” (The Penn State Research Foundation, priority 2020, published 2023)",
  "key": {"[1]": {"tested_on": "sciatic nerve crush injury", "assay": "Triceps surae muscle tension immediately after sciatic nerve crush injury", "format": "in vivo, rat", "procedure": "(§1) Sciatic nerve innervates triceps surae muscle and thus sciatic nerve conduction can be measured in terms of triceps surae muscle contraction. As shown in this experimental setup (FIG. 2) sciatic nerve was electrically stimulated proximal to crush site, and triceps surae muscle tension was measured by force transducer (FT10; Grass Instruments).\n(§2) Briefly, Sprague-Dawley (SD) rats were anaesthetized with 3-4% isoflurane, the trachea was cannulated, and the lungs were mechanically ventilated (Harvard Apparatus) with oxygen balanced vaporized 2% isoflurane. The sciatic nerve and triceps surae muscles were exposed by blunt dissection and the calcaneal tendon was severed and linked with braided fishing line to a force transducer. A shielded stimulating electrode was placed under sciatic nerve and injury was performed distal to a stimulating electrode. Sciatic nerve underwent a standardized crush injury with blunt forcep (Miltex #18-1107) and jig or laceration injury with fine scissors. Sciatic nerve crush injury was done 3 mm proximal to trifurcation. The triceps surae muscles were contracted for 10 seconds at 40 Hz, 0.1 ms pulse, and a voltage two times above the motor threshold."}, "[2]": {"tested_on": "nerve transection", "assay": "Triceps surae muscle tension after sciatic nerve transection (laceration) injury", "format": "in vivo, rat", "conditions": "150 μg/kg i.p.", "procedure": "as §1, §2"}, "[3]": {"tested_on": "sciatic nerve crush injury", "assay": "Triceps surae muscle tension 3 days post sciatic nerve crush injury", "format": "in vivo, rat", "conditions": "3 days post crush", "description": "Sciatic nerve crush injury was done 3 mm proximal to trifurcation.\nAnesthesia was maintained with 2% isoflurane."}, "[4]": {"tested_on": "Dorsal skin excision wounds", "assay": "Dorsal skin excision wound closure", "format": "in vivo, mouse", "procedure": "Dorsal skin excision wounds (5-mm diameter) were made on 7-8-week-old wild-type C57BL/6 mice (FIG. 15). Mice were systemically administered saline (control) or 80 μg of 4-AP daily for 14 days. All mice were subjected to functional wound healing and tissue regeneration image-based assays at days 0, 3, 7, 10, and 14. The wound size of each mouse was measured and compared to zero day wound diameter from digital images. The percentage of wound closure was calculated by using the formula:\nWound closure (%)=(area of original wound−area of actual wound)/area of original wound×100."}, "[5]": {"conditions": "150 μg/kg i.p., SD rat"}, "[6]": {"tested_on": "sciatic nerve crush injury", "conditions": "systemic administration (Tseng et al. 2016); cited from earlier work"}, "[7]": {"conditions": "cited from earlier work"}},
  "data": [
    {"smiles": "Nc1ccncc1", "note": "[4-AP, 4-aminopyridine]", "values": [
      {"measurement": "muscle tension", "setting": "[1]; 30 minutes after 4-AP 150 μg/kg i.p. or local thermogel, 2100 g before injury, none post crush", "result": 900, "unit": "g"},
      {"measurement": "Muscle response increase over a crush", "setting": "[1]; systemic (150 μg/kg i.p.) or local treatment", "result": 800, "unit": "%"},
      {"measurement": "AUC of muscle tension", "setting": "[1]; systemic or local treatment", "result": "significantly increased"},
      {"measurement": "peak muscle tension", "setting": "[1]; systemic or local treatment", "result": "significantly increased"},
      {"measurement": "restoration of nerve conduction upon treatment", "setting": "[2]", "result": "does not occur"},
      {"measurement": "muscle tension", "setting": "[3]; lower stimulation voltage, 30 minutes after 150 μg/kg i.p. or local thermogel", "result": 250, "unit": "g"},
      {"measurement": "AUC of muscle tension", "setting": "[3]; systemic or local treatment", "result": "significantly increased"},
      {"measurement": "Muscle response increase over a crush", "setting": "[3]; systemic or local treatment", "result": 80, "unit": "%"},
      {"measurement": "peak muscle tension", "setting": "[3]; systemic or local treatment", "result": "significantly increased"},
      {"measurement": "reduction in wound area as compared to control animals", "setting": "[4]; by seven days, systemic delivery", "result": "at least 50%"},
      {"measurement": "diameter/width of the wound area", "setting": "[4]; day 3, 5 mm wound at day 0, 80 μg daily systemic (saline 5 mm)", "result": 4.0, "unit": "mm"},
      {"measurement": "diameter/width of the wound area", "setting": "[4]; day 7, 80 μg daily systemic (saline 2.7 mm)", "result": 1.5, "unit": "mm"},
      {"measurement": "diameter/width of the wound area", "setting": "[4]; day 10, 80 μg daily systemic (saline 1.0)", "result": 0.3, "unit": "mm"},
      {"measurement": "wound area reduction as compared to control animals", "setting": "[4]; in three days, systemic delivery", "result": "at least 10%"},
      {"measurement": "wound healing compared to saline treated mice", "setting": "[4]; systemic administration", "result": "accelerates the wound healing process"},
      {"measurement": "4-AP concentration in serum", "setting": "[5]", "result": "tolerable 4-AP concentration in serum"},
      {"measurement": "motor functional recovery after sciatic nerve crush injury", "setting": "[6]", "result": "improve motor functional recovery after sciatic nerve crush injury"},
      {"measurement": "human tolerable limit of serum 4-AP", "setting": "[7]", "result": 100, "unit": "ng/mL"}
    ]}
  ]
}
